Values quoted from earlier work as cited in US8017153B2, “Dietary supplement composition for blood lipid health” (U.S. Nutraceuticals, LLC, priority 2006, dated 2011).

Conditions: Human studies

Substance: [^3H]-octacosanol
- total radioactivity excreted in the feces: 81-91%
- total radioactivity found in urine: 1.2%
